Reference: ChEMBL document CHEMBL3991601, “The target landscape of clinical kinase drugs” (Science, 2017)
Activity calls are given as the source filed them.

The molecules below were run against T1, STE20-related kinase adapter protein alpha (Homo sapiens, UniProt Q7RTN6).
T1 sequence (Q7RTN6 whole entry): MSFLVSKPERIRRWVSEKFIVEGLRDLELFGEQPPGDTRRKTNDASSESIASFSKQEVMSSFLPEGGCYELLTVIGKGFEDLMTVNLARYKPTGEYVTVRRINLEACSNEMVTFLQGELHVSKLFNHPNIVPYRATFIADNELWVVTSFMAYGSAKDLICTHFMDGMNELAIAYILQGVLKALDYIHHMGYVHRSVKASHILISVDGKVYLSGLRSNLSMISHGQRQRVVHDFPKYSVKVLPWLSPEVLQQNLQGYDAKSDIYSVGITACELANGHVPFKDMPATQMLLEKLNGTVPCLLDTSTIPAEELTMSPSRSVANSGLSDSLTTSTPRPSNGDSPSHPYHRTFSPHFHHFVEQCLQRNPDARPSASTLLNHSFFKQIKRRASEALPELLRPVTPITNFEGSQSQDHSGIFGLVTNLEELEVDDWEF
Note: in the data inactive means no Kd found up to 30 µM.

SMILES | Kd
Cc1ccc(S(=O)(=O)Nc2nc3ccccc3nc2Nc2ccc3nsnc3c2)cc1 | > 30 µM (inactive)
CN1CC[C@@H](c2c(O)cc(O)c3c(=O)cc(-c4ccccc4Cl)oc23)[C@@H]1CO | > 30 µM (inactive)
Cc1cc(-c2cc(O)ccc2Cl)cc2nnc(Nc3ccc(OCCN4CCCC4)cc3)nc12 | > 30 µM (inactive)
Cn1ncc(Cl)c1-c1cc(C(=O)N[C@H](CN)Cc2cccc(F)c2)sc1Cl [AFURESERTIB] | > 30 µM (inactive)
COc1cc(CCc2cc(NC(=O)c3ccc(N4C[C@@H](C)N[C@@H](C)C4)cc3)n[nH]2)cc(OC)c1 [AZD-4547] | > 30 µM (inactive)

The molecules below were run against Serine/threonine-protein kinase/endoribonuclease IRE2 (Homo sapiens, UniProt Q76MJ5).
Serine/threonine-protein kinase/endoribonuclease IRE2, sequence (Q76MJ5 whole entry): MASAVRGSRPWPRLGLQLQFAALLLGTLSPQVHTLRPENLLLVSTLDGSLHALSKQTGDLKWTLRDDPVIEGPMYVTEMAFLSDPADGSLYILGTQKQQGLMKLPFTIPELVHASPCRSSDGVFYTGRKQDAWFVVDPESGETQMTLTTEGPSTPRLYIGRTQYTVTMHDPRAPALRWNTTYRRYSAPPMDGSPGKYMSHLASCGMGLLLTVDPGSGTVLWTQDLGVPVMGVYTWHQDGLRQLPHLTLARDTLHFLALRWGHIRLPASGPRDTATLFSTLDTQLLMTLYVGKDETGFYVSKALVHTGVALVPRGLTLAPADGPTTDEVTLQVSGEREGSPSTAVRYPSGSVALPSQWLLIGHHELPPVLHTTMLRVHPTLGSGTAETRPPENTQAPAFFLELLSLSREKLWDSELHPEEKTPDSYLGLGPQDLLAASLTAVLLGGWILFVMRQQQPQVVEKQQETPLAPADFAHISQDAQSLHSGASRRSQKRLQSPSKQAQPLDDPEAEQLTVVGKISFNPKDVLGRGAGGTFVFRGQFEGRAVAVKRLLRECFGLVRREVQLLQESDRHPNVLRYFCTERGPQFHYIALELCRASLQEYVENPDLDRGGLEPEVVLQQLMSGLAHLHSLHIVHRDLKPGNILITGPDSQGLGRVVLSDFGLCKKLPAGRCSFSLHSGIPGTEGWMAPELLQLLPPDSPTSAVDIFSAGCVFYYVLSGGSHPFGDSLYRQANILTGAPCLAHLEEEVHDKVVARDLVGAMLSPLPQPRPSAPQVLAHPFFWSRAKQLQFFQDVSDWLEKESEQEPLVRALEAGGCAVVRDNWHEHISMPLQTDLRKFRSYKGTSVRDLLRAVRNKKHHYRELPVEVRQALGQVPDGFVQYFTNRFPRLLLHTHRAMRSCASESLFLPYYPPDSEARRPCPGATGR

SMILES | Kd
Cc1ccc(S(=O)(=O)Nc2nc3ccccc3nc2Nc2ccc3nsnc3c2)cc1 | > 30 µM (inactive)
CN1CC[C@@H](c2c(O)cc(O)c3c(=O)cc(-c4ccccc4Cl)oc23)[C@@H]1CO | > 30 µM (inactive)
Cc1cc(-c2cc(O)ccc2Cl)cc2nnc(Nc3ccc(OCCN4CCCC4)cc3)nc12 | > 30 µM (inactive)
Cn1ncc(Cl)c1-c1cc(C(=O)N[C@H](CN)Cc2cccc(F)c2)sc1Cl [AFURESERTIB] | > 30 µM (inactive)
COc1cc(CCc2cc(NC(=O)c3ccc(N4C[C@@H](C)N[C@@H](C)C4)cc3)n[nH]2)cc(OC)c1 [AZD-4547] | > 30 µM (inactive)

Each molecule was assayed against S-adenosylmethionine synthase isoform type-2 (Homo sapiens, UniProt P31153).
S-adenosylmethionine synthase isoform type-2, sequence (P31153 whole entry, canonical isoform): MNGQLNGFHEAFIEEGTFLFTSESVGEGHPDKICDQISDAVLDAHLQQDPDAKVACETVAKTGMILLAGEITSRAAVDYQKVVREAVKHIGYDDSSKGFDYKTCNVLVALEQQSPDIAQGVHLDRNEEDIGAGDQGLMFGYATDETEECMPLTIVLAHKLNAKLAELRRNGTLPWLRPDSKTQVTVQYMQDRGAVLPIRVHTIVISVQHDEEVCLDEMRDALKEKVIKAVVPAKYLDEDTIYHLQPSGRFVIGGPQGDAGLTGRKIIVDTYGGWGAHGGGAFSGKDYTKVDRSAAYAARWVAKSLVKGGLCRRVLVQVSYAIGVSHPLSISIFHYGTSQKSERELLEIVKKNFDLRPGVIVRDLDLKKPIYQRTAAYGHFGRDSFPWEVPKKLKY

SMILES | Kd
Cc1ccc(S(=O)(=O)Nc2nc3ccccc3nc2Nc2ccc3nsnc3c2)cc1 | > 30 µM (inactive)
CN1CC[C@@H](c2c(O)cc(O)c3c(=O)cc(-c4ccccc4Cl)oc23)[C@@H]1CO | > 30 µM (inactive)
Cc1cc(-c2cc(O)ccc2Cl)cc2nnc(Nc3ccc(OCCN4CCCC4)cc3)nc12 | > 30 µM (inactive)
Cn1ncc(Cl)c1-c1cc(C(=O)N[C@H](CN)Cc2cccc(F)c2)sc1Cl [AFURESERTIB] | > 30 µM (inactive)

Each molecule was assayed against T2, Phosphatidylinositol 5-phosphate 4-kinase type-2 gamma (Homo sapiens, UniProt Q8TBX8).
T2 sequence (Q8TBX8 whole entry): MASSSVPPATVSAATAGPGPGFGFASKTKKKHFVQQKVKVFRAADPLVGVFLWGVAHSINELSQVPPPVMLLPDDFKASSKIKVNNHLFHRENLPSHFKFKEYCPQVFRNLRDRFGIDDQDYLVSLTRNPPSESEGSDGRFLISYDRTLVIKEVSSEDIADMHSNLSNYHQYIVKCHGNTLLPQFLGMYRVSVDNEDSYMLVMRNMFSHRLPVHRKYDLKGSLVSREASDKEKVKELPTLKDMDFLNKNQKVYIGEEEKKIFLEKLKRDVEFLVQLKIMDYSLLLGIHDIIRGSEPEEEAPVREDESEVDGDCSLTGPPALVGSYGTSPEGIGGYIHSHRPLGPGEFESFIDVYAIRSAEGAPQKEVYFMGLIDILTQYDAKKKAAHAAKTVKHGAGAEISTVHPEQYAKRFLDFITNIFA

SMILES | Kd
Cc1ccc(S(=O)(=O)Nc2nc3ccccc3nc2Nc2ccc3nsnc3c2)cc1 | > 30 µM (inactive)
CN1CC[C@@H](c2c(O)cc(O)c3c(=O)cc(-c4ccccc4Cl)oc23)[C@@H]1CO | > 30 µM (inactive)
Cc1cc(-c2cc(O)ccc2Cl)cc2nnc(Nc3ccc(OCCN4CCCC4)cc3)nc12 | > 30 µM (inactive)
Cn1ncc(Cl)c1-c1cc(C(=O)N[C@H](CN)Cc2cccc(F)c2)sc1Cl [AFURESERTIB] | > 30 µM (inactive)
COc1cc(CCc2cc(NC(=O)c3ccc(N4C[C@@H](C)N[C@@H](C)C4)cc3)n[nH]2)cc(OC)c1 [AZD-4547] | > 30 µM (inactive)

The molecules below were run against RAC-alpha serine/threonine-protein kinase (Homo sapiens, UniProt P31749).
RAC-alpha serine/threonine-protein kinase, sequence (P31749 whole entry): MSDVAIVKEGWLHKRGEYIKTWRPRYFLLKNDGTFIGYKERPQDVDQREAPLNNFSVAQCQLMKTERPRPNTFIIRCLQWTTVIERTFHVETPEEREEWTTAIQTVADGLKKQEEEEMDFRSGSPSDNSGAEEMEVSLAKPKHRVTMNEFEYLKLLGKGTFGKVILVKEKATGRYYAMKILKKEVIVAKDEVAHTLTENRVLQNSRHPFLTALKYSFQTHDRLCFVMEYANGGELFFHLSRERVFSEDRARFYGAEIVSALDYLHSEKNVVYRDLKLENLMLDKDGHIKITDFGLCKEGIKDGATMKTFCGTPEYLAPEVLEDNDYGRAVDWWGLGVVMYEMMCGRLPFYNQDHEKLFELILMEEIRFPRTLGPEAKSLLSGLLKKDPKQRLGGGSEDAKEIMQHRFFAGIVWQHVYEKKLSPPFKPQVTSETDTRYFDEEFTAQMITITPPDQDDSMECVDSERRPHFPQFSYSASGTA

SMILES | Kd
Cc1ccc(S(=O)(=O)Nc2nc3ccccc3nc2Nc2ccc3nsnc3c2)cc1 | > 30 µM (inactive)
CN1CC[C@@H](c2c(O)cc(O)c3c(=O)cc(-c4ccccc4Cl)oc23)[C@@H]1CO | > 30 µM (inactive)
Cc1cc(-c2cc(O)ccc2Cl)cc2nnc(Nc3ccc(OCCN4CCCC4)cc3)nc12 | > 30 µM (inactive)
COc1cc(CCc2cc(NC(=O)c3ccc(N4C[C@@H](C)N[C@@H](C)C4)cc3)n[nH]2)cc(OC)c1 [AZD-4547] | > 30 µM (inactive)

Each molecule was assayed against Tyrosine-protein kinase JAK1 (Homo sapiens, UniProt P23458).
Tyrosine-protein kinase JAK1, sequence (P23458 whole entry): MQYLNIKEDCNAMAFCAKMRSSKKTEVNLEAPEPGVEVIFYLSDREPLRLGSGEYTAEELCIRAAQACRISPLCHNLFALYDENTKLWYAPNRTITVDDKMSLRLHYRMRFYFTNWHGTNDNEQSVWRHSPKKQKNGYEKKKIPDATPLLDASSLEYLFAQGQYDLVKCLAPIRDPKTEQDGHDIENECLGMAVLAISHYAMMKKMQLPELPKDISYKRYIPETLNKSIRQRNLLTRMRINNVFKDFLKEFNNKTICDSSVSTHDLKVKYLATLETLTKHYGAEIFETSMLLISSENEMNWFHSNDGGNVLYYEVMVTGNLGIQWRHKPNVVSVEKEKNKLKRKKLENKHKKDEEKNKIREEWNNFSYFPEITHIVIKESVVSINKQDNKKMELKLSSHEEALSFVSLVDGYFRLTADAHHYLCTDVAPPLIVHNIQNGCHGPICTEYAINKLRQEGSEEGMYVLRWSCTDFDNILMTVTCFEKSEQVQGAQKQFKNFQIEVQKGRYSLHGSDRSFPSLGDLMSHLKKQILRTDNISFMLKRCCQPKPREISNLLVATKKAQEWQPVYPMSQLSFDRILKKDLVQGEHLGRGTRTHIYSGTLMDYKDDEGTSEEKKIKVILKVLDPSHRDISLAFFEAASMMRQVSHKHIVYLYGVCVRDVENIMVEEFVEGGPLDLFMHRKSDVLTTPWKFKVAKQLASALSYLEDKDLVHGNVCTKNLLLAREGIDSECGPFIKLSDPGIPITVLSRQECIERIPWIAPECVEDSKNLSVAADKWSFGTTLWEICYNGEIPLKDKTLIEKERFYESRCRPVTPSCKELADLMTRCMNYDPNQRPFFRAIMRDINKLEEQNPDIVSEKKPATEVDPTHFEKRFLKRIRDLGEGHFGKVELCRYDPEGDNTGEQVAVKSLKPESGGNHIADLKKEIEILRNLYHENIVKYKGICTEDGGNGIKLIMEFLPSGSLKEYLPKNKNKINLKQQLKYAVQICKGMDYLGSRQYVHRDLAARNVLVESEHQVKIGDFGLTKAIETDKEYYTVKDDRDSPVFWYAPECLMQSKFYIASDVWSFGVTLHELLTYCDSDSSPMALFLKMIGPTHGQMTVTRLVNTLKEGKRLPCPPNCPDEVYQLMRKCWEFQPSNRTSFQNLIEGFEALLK

SMILES | Kd
Cc1ccc(S(=O)(=O)Nc2nc3ccccc3nc2Nc2ccc3nsnc3c2)cc1 | > 30 µM (inactive)
CN1CC[C@@H](c2c(O)cc(O)c3c(=O)cc(-c4ccccc4Cl)oc23)[C@@H]1CO | > 30 µM (inactive)
Cc1cc(-c2cc(O)ccc2Cl)cc2nnc(Nc3ccc(OCCN4CCCC4)cc3)nc12 | > 30 µM (inactive)
Cn1ncc(Cl)c1-c1cc(C(=O)N[C@H](CN)Cc2cccc(F)c2)sc1Cl [AFURESERTIB] | > 30 µM (inactive)
COc1cc(CCc2cc(NC(=O)c3ccc(N4C[C@@H](C)N[C@@H](C)C4)cc3)n[nH]2)cc(OC)c1 [AZD-4547] | > 30 µM (inactive)

These molecules were tested against T3, Non-receptor tyrosine-protein kinase TNK1 (Homo sapiens, UniProt Q13470).
T3 sequence (Q13470 whole entry): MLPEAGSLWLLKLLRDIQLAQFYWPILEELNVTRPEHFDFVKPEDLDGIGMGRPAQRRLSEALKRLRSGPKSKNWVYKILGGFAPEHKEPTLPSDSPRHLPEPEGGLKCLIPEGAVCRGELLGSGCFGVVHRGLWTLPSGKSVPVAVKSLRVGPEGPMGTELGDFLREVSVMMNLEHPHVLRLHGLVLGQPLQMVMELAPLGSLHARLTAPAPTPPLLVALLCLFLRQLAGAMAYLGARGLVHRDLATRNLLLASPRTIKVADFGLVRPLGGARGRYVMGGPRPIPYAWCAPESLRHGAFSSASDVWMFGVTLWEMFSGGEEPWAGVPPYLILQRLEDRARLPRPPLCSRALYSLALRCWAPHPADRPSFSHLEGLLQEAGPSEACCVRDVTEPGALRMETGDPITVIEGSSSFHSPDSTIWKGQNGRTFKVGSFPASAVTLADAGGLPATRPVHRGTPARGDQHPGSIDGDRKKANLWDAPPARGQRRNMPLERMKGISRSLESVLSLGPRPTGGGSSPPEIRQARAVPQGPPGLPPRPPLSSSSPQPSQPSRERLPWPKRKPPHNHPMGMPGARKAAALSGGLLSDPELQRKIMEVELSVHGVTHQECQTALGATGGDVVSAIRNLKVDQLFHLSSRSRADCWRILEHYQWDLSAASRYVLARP

SMILES | Kd
Cc1ccc(S(=O)(=O)Nc2nc3ccccc3nc2Nc2ccc3nsnc3c2)cc1 | > 30 µM (inactive)
CN1CC[C@@H](c2c(O)cc(O)c3c(=O)cc(-c4ccccc4Cl)oc23)[C@@H]1CO | > 30 µM (inactive)
Cc1cc(-c2cc(O)ccc2Cl)cc2nnc(Nc3ccc(OCCN4CCCC4)cc3)nc12 | > 30 µM (inactive)
Cn1ncc(Cl)c1-c1cc(C(=O)N[C@H](CN)Cc2cccc(F)c2)sc1Cl [AFURESERTIB] | > 30 µM (inactive)
COc1cc(CCc2cc(NC(=O)c3ccc(N4C[C@@H](C)N[C@@H](C)C4)cc3)n[nH]2)cc(OC)c1 [AZD-4547] | > 30 µM (inactive)

These molecules were tested against T4, Bone morphogenetic protein receptor type-2 (Homo sapiens, UniProt Q13873).
T4 sequence (Q13873 whole entry): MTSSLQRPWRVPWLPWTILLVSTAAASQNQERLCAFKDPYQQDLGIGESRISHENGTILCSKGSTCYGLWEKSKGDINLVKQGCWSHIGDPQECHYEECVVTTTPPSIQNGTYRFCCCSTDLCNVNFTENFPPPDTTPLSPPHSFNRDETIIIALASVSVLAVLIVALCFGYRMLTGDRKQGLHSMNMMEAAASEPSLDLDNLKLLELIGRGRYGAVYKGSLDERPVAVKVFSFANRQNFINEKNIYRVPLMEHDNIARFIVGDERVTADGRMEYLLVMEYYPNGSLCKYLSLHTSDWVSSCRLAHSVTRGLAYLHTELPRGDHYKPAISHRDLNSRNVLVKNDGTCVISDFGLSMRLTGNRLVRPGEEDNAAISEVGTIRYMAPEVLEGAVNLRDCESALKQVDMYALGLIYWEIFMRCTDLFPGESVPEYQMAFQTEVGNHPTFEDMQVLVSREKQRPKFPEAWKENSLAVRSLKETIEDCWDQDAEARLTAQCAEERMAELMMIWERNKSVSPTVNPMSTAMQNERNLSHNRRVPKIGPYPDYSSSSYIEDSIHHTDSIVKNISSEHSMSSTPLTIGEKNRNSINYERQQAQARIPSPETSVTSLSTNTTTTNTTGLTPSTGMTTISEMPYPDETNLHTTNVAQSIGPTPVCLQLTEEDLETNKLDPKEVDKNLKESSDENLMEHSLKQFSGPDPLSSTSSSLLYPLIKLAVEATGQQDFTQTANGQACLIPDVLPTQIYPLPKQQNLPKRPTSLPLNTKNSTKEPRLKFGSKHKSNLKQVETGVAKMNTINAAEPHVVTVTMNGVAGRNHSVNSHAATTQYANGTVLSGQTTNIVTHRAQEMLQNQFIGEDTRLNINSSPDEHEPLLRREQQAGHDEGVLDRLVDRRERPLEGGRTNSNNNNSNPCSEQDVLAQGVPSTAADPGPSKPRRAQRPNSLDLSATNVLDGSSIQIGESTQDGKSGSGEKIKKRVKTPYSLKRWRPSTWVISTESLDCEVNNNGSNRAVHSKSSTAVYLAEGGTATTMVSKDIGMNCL

SMILES | Kd
Cc1ccc(S(=O)(=O)Nc2nc3ccccc3nc2Nc2ccc3nsnc3c2)cc1 | > 30 µM (inactive)
CN1CC[C@@H](c2c(O)cc(O)c3c(=O)cc(-c4ccccc4Cl)oc23)[C@@H]1CO | > 30 µM (inactive)
Cc1cc(-c2cc(O)ccc2Cl)cc2nnc(Nc3ccc(OCCN4CCCC4)cc3)nc12 | 0.003 µM (active)
Cn1ncc(Cl)c1-c1cc(C(=O)N[C@H](CN)Cc2cccc(F)c2)sc1Cl [AFURESERTIB] | > 30 µM (inactive)
COc1cc(CCc2cc(NC(=O)c3ccc(N4C[C@@H](C)N[C@@H](C)C4)cc3)n[nH]2)cc(OC)c1 [AZD-4547] | > 30 µM (inactive)
